Tests used:
NRRL 15878 = assay: Resistance to antibiotics, sensitivity discs on seeded ISP No. 2 agar; format: cell-based, Actinomadura oligospora
Method: (§1) Resistance to antibiotics was measured by padding antibiotic sensitivity discs onto the surface of seeded ISP No. 2 agar plates.
(§2) Table III lists the resistance of the strain to various antibiotics at the concentrations indicated and compares it to that of A. macra.

[1] = tested on: Eimeria acervulina (Lilly strain 59), Eimeria maxima (strain FS-177) and Eimeria tenella (strain FS-155); assay: Coccidiosis test in broiler chicks, A80190 with nicarbazin (Test 1); format: in vivo; settings: A80190 0 p.p.m. in ration
A. macra = assay: Resistance to antibiotics, sensitivity discs on seeded ISP No. 2 agar; format: cell-based
Method: as §1, §2

CN(C)[C@@H]1C(O)=C(C(N)=O)C(=O)[C@@]2(O)C(O)=C3C(=O)c4c(O)cccc4[C@@](C)(O)[C@H]3C[C@@H]12 [Tetracycline]
Resistance to Antibiotics (NRRL 15878; Concentration 30 µg): -

CO[C@H]1C[C@H](O[C@H]2[C@H](C)[C@@H](O[C@@H]3O[C@H](C)C[C@H](N(C)C)[C@H]3O)[C@@H](C)C[C@@]3(CO3)C(=O)[C@H](C)[C@@H](O)[C@@H](C)[C@@H](C)OC(=O)[C@@H]2C)O[C@@H](C)[C@@H]1O [Oleandomycin]
Resistance to Antibiotics (NRRL 15878; Concentration 15 µg): -

CC1(C)S[C@@H]2[C@H](NC(=O)Cc3ccccc3)C(=O)N2[C@H]1C(=O)O [Pencillin G]
Resistance to Antibiotics (NRRL 15878; Concentration 10 units): +

[H]/N=C(/N)N[C@H]1[C@H](O)[C@@H](O)[C@H](O[C@@H]2O[C@@H](C)[C@](O)(C=O)[C@H]2O[C@@H]2O[C@@H](CO)[C@H](O)[C@@H](O)[C@@H]2NC)[C@@H](N/C(N)=N\[H])[C@@H]1O [Streptomycin]
Resistance to Antibiotics (NRRL 15878; Concentration 10 µg): -

CC(=O)OCC1=C(C(=O)O)N2C(=O)[C@@H](NC(=O)Cc3cccs3)[C@H]2SC1 [Cephalothin]
Resistance to Antibiotics (NRRL 15878; Concentration 30 µg): +

Nicarbazin [reference compound]
CECAL LESION SCORES ([1]; Nicarbazin 20 p.p.m.): 3.19
INTESTINAL LESION SCORES ([1]; Nicarbazin 20 p.p.m.): 9.13
WEIGHT GAIN ([1]; Nicarbazin 20 p.p.m.): 159 grams/per chicken
CECAL LESION SCORES ([1]; Nicarbazin 30 p.p.m.): 3.50
INTESTINAL LESION SCORES ([1]; Nicarbazin 30 p.p.m.): 8.88
WEIGHT GAIN ([1]; Nicarbazin 30 p.p.m.): 174 grams/per chicken
CECAL LESION SCORES ([1]; Nicarbazin 40 p.p.m.): 3.17
INTESTINAL LESION SCORES ([1]; Nicarbazin 40 p.p.m.): 8.90
WEIGHT GAIN ([1]; Nicarbazin 40 p.p.m.): 211 grams/per chicken
CECAL LESION SCORES ([1]; Nicarbazin 50 p.p.m.): 3.19
INTESTINAL LESION SCORES ([1]; Nicarbazin 50 p.p.m.): 8.56
WEIGHT GAIN ([1]; Nicarbazin 50 p.p.m.): 222 grams/per chicken
CECAL LESION SCORES ([1]; Nicarbazin 125 p.p.m.): 0.33
INTESTINAL LESION SCORES ([1]; Nicarbazin 125 p.p.m.): 0.08
WEIGHT GAIN ([1]; Nicarbazin 125 p.p.m.): 279 grams/per chicken

CO[C@H]1/C=C/O[C@@]2(C)Oc3c(C)c(O)c4c(O)c(c(/C=N/N5CCN(C)CC5)c(O)c4c3C2=O)NC(=O)/C(C)=C\C=C\[C@H](C)[C@H](O)[C@@H](C)[C@@H](O)[C@@H](C)[C@H](OC(C)=O)[C@@H]1C [Rifampin]
Resistance to Antibiotics (NRRL 15878; Concentration 5 µg): +

CCC[C@@H]1C[C@@H](C(=O)N[C@@H]([C@H]2O[C@H](SC)[C@H](O)[C@@H](O)[C@H]2O)[C@@H](C)O)N(C)C1 [Lincomycin]
Resistance to Antibiotics (NRRL 15878; Concentration 2 µg): +
Resistance to Antibiotics (A. macra; Concentration 2 µg): +

NC[C@H]1O[C@H](O[C@H]2[C@H](O)[C@@H](O[C@H]3O[C@H](CO)[C@@H](O)[C@H](N)[C@H]3O)[C@H](N)C[C@@H]2N)[C@H](N)C[C@@H]1O [Tobramycin]
Resistance to Antibiotics (NRRL 15878; Concentration 10 µg): -
Resistance to Antibiotics (A. macra; Concentration 10 µg): -

NC[C@@H]1O[C@H](O[C@H]2[C@@H](O)[C@H](O[C@@H]3[C@@H](O)[C@H](N)C[C@H](N)[C@H]3O[C@H]3O[C@H](CN)[C@@H](O)[C@H](O)[C@H]3N)O[C@@H]2CO)[C@H](N)[C@@H](O)[C@@H]1O [Neomycin]
Resistance to Antibiotics (NRRL 15878; Concentration 30 µg): -
Resistance to Antibiotics (A. macra; Concentration 30 µg): -
